Results as given in patent US9255272B2, “Use of inhibitors of leukotriene B4 receptor BLT2 for treating asthma” (Korea University Research & Business Foundation, priority 2007, dated 2016).

Key:
Type in all cases: in vivo, mouse
[1] = test system: IκB-α; test: IκB-α level in lung tissue (Western blot); conditions: lung tissue extracts
Method: (§1) Female BALB/c mice and C57BL/6 mice (7 weeks old; 18-20 g) were obtained from Orientbion Inc. (Seoungnam, Korea). Sensitization and challenge were carried out as described previously with some modification (28). Briefly, female C57BL/6 mice (7 weeks old; 18-20 g) were immunized by intraperitoneal (i.p.) injection of 200 μg ovalbumin (OVA) emulsified in 2.5 mg of adjuvant aluminum hydroperoxide gel (alum) (Pierce, Rockford, Ill.). A second i.p. injection of 20 μg OVA adsorbed onto alum (2.5 mg) was administered 10 days later. After an additional 10 days, mice were exposed to an aerosol of 1% OVA in saline for 30 min daily on 3 consecutive days. On day 25, mice were finally challenged by provocation with 10% OVA aerosol. For inhibition experiments, sense or antisense BLT2 (1.6 mg/kg) was injected intravenously 24 h and then 1 h before the 10% OVA challenge. The mice were then killed on day 27 to assess asthmatic phenotypes. Antisense BLT2 oligonucleotide (5′-[…]-3′ (SEQ ID NO: 15)), sense BLT2 oligonucleotide (5′-[…]-3′ (SEQ ID NO: 16)).
Alternatively, BALB/c mice were sensitized on day 1 by i.p. injection of 20 μg OVA emulsified in 2.5 mg of alum (Pierce, Rockford, Ill.), followed by an identical booster injection administered on day 14. On days 21, 22 and 23 after initial sensitization, the mice were challenged for 30 min with an aerosol of 1% OVA using an ultrasonic nebulizer. […]

[2] = test system: OVA-challenged mice; test: Eosinophil infiltration in BAL fluid of OVA-challenged mice; conditions: C57BL/6 mice, 1.6 mg/kg i.v. 24 hr and 1 hr before 10% OVA challenge, 48 hr
Method: as §1
Inflammatory cells in the BAL fluid were collected by centrifugation (1,000 g for 3 min) and washed once in PBS. Cells were counted using a hemocytometer, and viability was assessed by trypan blue exclusion. […]

[3] = test system: NF-κB; test: NF-κB binding activity in lung nuclear extracts (EMSA)
Method: as §1
A double-strand oligonucleotide corresponding to the consensus NF-κB binding motif and a mutant sequence were purchased from Santa Cruz Biotechnology Inc. (Santa Cruz, Calif.) and labeled with γ-32P-ATP using T4 polynucleotide kinase (Roche, Germany). […]

CCc1cc(C(C)=O)c(O)cc1OCCCCCC(C)(C)c1nnn[nH]1 [LY255283, 1-[5-ethyl-2-hydroxy-4-[[6-methyl-6-(1H-tetrazol-5-yl)heptyl]oxy]phenyl]-ethanone, reference compound]
reduction of IκB-α degradation following OVA challenge ([1]; LY255283 2.5 mg/kg 1 hr before 1% OVA challenge): −50%

antisense BLT2: Antisense BLT2 oligonucleotide 5′-GCTCAGTAGTGTCTCATTCC-3′ (SEQ ID NO: 15) (listed as DNA, chemistry not fully specified)
reduction of eosinophil infiltration in BAL fluids [2]: ~87% | reduction of IκB-α degradation following OVA challenge ([1]; antisense BLT2 1.6 mg/kg): −50% | NF-κB binding activity elicited by OVA challenge ([3]; antisense BLT2 1.6 mg/kg i.v. 24 hr and 1 hr before provocation): attenuated

antisense Rac: phosphorothioate 17-mer to the 5′ end of murine Rac mRNA, 5′-CACTTGATGGCCTGCAT-3′ (SEQ ID NO: 22) (listed as DNA, chemistry not fully specified)
NF-κB binding activity elicited by OVA challenge ([3]; antisense Rac 1.25 mg/kg, tail vein): attenuated
